Results as given in ChEMBL document CHEMBL1201862, “PubChem BioAssay data set” (2004).
The source made the active and inactive calls.

Tests used:
Streptococcus = assay: Group A Streptococcus viability loss, dose response, counter-screen for streptokinase expression inhibitor project, luminescence, BacTiterGlo (AID 1915); assay type: functional, organism-based;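 further: potency for reduction of bacterial viability or growth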
Streptokinase A = target: T1, Streptokinase A (Streptococcus pyogenes serotype M1, UniProt P10520); assay: S. pyogenes streptokinase expression inhibitors, potency, dose response, plasminogen activation absorbance, OD405 (AID 1914); assay type: functional, Streptococcus pyogenes M1 GAS;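 further: secreted streptokinase activity via plasminogen activation per viability signal from cell pellet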
T1 sequence (P10520 whole entry): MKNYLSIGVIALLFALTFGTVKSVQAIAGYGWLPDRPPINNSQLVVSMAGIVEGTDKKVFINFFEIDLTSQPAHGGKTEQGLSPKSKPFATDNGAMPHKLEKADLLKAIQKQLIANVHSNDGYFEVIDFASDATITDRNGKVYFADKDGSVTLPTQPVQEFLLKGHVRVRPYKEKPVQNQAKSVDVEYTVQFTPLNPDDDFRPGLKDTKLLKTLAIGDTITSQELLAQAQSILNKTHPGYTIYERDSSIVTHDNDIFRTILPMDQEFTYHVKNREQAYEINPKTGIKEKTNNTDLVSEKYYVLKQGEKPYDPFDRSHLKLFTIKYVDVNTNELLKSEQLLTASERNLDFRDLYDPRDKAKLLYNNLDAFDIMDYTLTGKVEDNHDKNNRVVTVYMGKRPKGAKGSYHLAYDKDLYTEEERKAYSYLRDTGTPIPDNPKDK

[1] = target: T2, Corticotropin-releasing factor receptor 2/Corticotropin-releasing factor-binding protein (Homo sapiens, UniProt P24387+Q13324); assay: activators of CRF receptor 2 with binding protein – uHTS hits, confirmation (AID 602473); assay type: functional; conditions: read-out: EC50_Mean
T2 sequence (Q13324 whole entry): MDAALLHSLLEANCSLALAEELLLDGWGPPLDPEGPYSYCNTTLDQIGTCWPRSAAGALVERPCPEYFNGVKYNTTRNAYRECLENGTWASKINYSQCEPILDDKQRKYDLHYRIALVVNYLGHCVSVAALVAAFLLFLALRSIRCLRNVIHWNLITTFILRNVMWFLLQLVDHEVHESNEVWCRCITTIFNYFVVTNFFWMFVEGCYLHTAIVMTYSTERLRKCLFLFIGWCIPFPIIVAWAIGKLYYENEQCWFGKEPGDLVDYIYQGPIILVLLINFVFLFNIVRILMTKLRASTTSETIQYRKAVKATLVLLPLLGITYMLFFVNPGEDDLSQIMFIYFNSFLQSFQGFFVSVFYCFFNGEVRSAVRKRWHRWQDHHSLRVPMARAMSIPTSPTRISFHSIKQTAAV
T2 sequence (P24387 whole entry): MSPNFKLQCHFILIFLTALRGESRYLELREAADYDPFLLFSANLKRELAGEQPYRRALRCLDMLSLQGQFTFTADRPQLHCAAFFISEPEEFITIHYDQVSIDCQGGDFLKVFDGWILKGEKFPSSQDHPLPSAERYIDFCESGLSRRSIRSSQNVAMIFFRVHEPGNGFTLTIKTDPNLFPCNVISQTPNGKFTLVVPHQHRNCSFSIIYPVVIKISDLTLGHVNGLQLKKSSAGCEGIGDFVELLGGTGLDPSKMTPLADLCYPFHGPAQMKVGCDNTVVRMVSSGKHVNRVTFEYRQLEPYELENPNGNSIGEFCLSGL

[2] = target: T2, Corticotropin-releasing factor receptor 2/Corticotropin-releasing factor-binding protein; assay: Dose Response confirmation of uHTS hits for small molecule antagonists of the CRF-binding protein and CRF-R2 receptor complex.; assay type: functional; conditions: read-out: IC50_Mean
[3] = C. albicans growth with fluconazole, confirmation, fluorescence, retest (AID 2467); assay type: functional, cell-based
[4] = NIH-3T3 fibroblast cytotoxicity, dose response, cytotoxicity control, cell-based, fluorescence, Alamar Blue, secondary assay (AID 2327); assay type: functional;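 further: NIH-3T3 mouse fibroblasts cultured with fluconazole at 8 µg/mL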
[5] = target: FAD-linked sulfhydryl oxidase ALR (Homo sapiens, UniProt P55789); assay: inhibitors of human ALR sulfhydryl oxidase, dose response, biochemical, H2O2 detection, luminescence, cherry-pick (AID 493248)
FAD-linked sulfhydryl oxidase ALR, sequence (P55789 whole entry): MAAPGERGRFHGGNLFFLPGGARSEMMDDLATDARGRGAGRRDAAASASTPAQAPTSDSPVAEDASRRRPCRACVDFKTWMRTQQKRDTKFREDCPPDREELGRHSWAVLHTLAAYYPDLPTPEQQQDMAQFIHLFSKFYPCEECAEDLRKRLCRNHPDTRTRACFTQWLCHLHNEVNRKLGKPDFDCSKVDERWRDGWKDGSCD

cells = assay type: functional
[6] = cytotoxicity toward NIH3T3 fibroblasts, dose response, counter-screen, cell-based, ATP luminescence, mouse fibroblasts (AID 2010); assay type: functional;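 further: cells exposed to compound for about 90 hours before reading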
[7] = inhibitors of intracellular T. cruzi replication, confirmation, NIH3T3 host cells, beta-gal luminescence (AID 2044); assay type: functional, cell-based;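 further: intracellular parasites grown in NIH/3T3 mouse fibroblasts as host cells; luminescent beta-galactosidase reporter signal from transgenic T. cruzi replicating inside host cells; inhibitors lower the luminescence signal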
[8] = Luminescence Cell-Based Dose Confirmation HTS to Identify Activators of 5'UTR Stem-Loop Driven Alpha-Synuclein mRNA Translation in H4 Neuroglioblastoma Cells. [Related pubchem assays: 1829 (Project Summary), 1814 (Primary HTS)]; assay type: functional
[9] = Luminescence Cell-Based Dose Response HTS to Identify Activators of Luciferase Translation or Activity in H4 […] Cells. [Related pubchem assays: 1829 (Project Summary), 1814 (Primary HTS)]; assay type: functional
H4 = assay: Luminescence Cell-Based Dose Response HTS to Identify Activators of 5'UTR Stem-Loop Driven Prion Protein mRNA Translation in H4 Neuroglioblastoma Cells. [Related pubchem assays: 1829 (Project Summary), 1814 (Primary HTS)]; assay type: functional; conditions: Homo sapiens
[10] = tested on: Streptococcus sp. 'group A'; assay: growth inhibition of control SK(-) GAS strain, dose response, counter-screen for streptokinase expression inhibitor project, luminescence, kanamycin, BacTiterGlo, confirmation (AID 1900); assay type: functional, organism-based
[11] = Luminescence Cell-Based Dose Retest to Confirm Inhibitors of Cancer Stem Cells. [Related pubchem assays (depositor defined):AID2717, AID2721]; assay type: functional; conditions: Homo sapiens
Cytochrome P450 2C19 = Cytochrome P450 2C19 (Homo sapiens, UniProt P33261); assay: Cytochrome panel assay with activity outcomes. Panel member name: p450-cyp2c19 Compounds with AC50 equal or less than 10 uM are considered active; assay type: functional
Cytochrome P450 2C19, sequence (P33261 whole entry): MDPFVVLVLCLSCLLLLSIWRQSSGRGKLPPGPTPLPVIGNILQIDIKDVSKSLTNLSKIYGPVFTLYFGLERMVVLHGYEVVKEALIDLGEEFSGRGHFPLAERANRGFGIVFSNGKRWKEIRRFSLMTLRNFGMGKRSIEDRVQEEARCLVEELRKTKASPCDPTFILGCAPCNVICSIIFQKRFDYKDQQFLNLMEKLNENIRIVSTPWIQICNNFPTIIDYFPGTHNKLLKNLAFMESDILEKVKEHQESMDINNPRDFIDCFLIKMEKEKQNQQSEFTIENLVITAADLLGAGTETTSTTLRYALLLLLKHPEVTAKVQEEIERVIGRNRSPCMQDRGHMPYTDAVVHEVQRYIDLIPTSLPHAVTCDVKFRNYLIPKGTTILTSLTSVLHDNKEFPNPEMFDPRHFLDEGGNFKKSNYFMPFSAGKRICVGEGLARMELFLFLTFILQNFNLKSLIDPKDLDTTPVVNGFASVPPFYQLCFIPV

CCC1(C)Cc2ccccc2-c2c1c(=O)n(Cc1ccccc1)c1nnnn21 (centres undefined)
EC50 (Streptococcus): > 150 µM (not active) | EC50 (Streptokinase A): 4.04 µM (active)

COc1ccc(CN(CCc2c[nH]c3ccccc23)Cc2ccc(OC)cc2)cc1
EC50 [1]: > 53 µM (inactive) | IC50 [2]: > 47.1 µM (inactive)

Cc1occc1C(=O)Nc1nnc(C(F)(F)F)s1
EC50 [3]: 1.95 µM (active) | EC50 [4]: > 150 µM (inconclusive)

Cc1ccc(NC(NC(=O)c2ccccn2)C(Cl)(Cl)Cl)cc1 (centres undefined)
AC50 [5]: 0.731 µM (active)

COc1ccc(OC(=O)c2cc3cc(Cl)ccc3oc2=O)cc1
IC50 (cells): 7.33 µM (active)

CC1CC(N(C(=O)c2ccco2)c2ccccc2)c2ccccc2N1 (centres undefined)
AC50 [5]: 0.465 µM (active)

O=C(CCN1CCOCC1)c1ccc(Cl)cc1
IC50 (cells): 22.5 µM (active) | EC50 [6]: > 60 µM (not active) | EC50 [7]: 1.74 µM (active)

O=C(N/N=C/c1cccc(O)c1)N/N=C/c1cccc(O)c1
AC50 [5]: 0.797 µM (active)

CC(=O)NCCc1c(C)n(Cc2ccccc2)c2ccccc12
AC50 [5]: 3.02 µM (active)

O=C(c1ccccc1)N1CCN(c2ncnc3c(-c4ccccc4)nsc23)CC1
EC50 [8]: 33.1 µM (active) | EC50 [9]: > 120 µM (not active) | EC50 (H4): 17 µM (active)

CCN(CCNC(=O)c1cccc(N2CCCC2=O)c1)c1ccccc1
AC50 [5]: 0.508 µM (active)

Cc1ccc(S(=O)(=O)N(C)CC(=O)N2CC(C)OC(C)C2)cc1 (centres undefined)
EC50 [10]: > 150 µM (not active) | EC50 (Streptococcus): > 150 µM (not active) | EC50 (Streptokinase A): > 150 µM (not active)

COc1cc(-c2csc(CCn3nc(C)cc3C)n2)cc(OC)c1OC
AC50 [5]: 0.059 µM (active)

O=C(CCCc1c[nH]c2ccccc12)N1CCCCCC1
EC50 [8]: 8.16 µM (active) | EC50 [9]: 7.67 µM (active) | EC50 (H4): 34.2 µM (active)

COc1ccccc1-c1c[nH]nc1-c1ccc(OCc2ccc(F)cc2)cc1O
EC50 [10]: 7.62 µM (active) | EC50 (Streptococcus): 24.5 µM (active) | EC50 (Streptokinase A): 76.6 µM (active)

N#Cc1ccc(-c2nc3cc(Cl)ccc3c(=O)n2O)cc1
EC50 [3]: 1.63 µM (active) | EC50 [4]: > 160 µM (inconclusive)

CCOc1ccccc1N1CCN(CC(O)COC2CCCc3ccccc32)CC1 (centres undefined)
EC50 [3]: 1.02 µM (active) | EC50 [4]: > 160 µM (inactive)

COc1ccc(/C=C/C(=O)NC(=S)NNC(=O)c2cc(OC)c(OC)c(OC)c2)cc1OC
EC50 [10]: 3.3 µM (active) | EC50 (Streptococcus): 17.8 µM (active) | EC50 (Streptokinase A): > 150 µM (not active)

O=C(NC(=S)Nc1ccc(Cl)cn1)C(c1ccccc1)c1ccccc1
EC50 [10]: 3.85 µM (active) | EC50 (Streptococcus): 6.57 µM (active) | EC50 (Streptokinase A): > 150 µM (not active)

c1ccc2c(c1)CCN(c1nc3ccccc3n3cnnc13)C2
EC50 [8]: 0.123 µM (active) | EC50 [9]: 26.4 µM (active) | EC50 (H4): 29.1 µM (active)

Cc1ccc(-c2nn(-c3ccccc3)cc2/C=C2\SC(=S)N(CCCCCC(=O)O)C2=O)o1
EC50 [8]: 12.6 µM (active) | EC50 [9]: 16 µM (active) | EC50 (H4): 13.9 µM (active)

COc1ccc(NC(=O)c2cc3cccc(OC)c3o/c2=N\c2ccc(C(=O)O)cc2)cc1OC
EC50 [10]: 2.38 µM (active) | EC50 (Streptococcus): 20.2 µM (active) | EC50 (Streptokinase A): > 150 µM (not active)

COc1cccc(NC(=O)C(=O)N2CCOCC2)c1
EC50 [8]: 4.35 µM (active) | EC50 [9]: 78.3 µM (active) | EC50 (H4): 24.3 µM (active)

Cc1cc(C(=O)CSc2nnc(-c3cccnc3)n2-c2ccccc2)c(C)n1CC1CCCO1 (centres undefined)
EC50 [8]: 8.04 µM (active) | EC50 [9]: 18.7 µM (active) | EC50 (H4): > 60 µM (not active)

O=C(NCc1cccs1)c1ccc(C[S+]([O-])Cc2cccc(Cl)c2)o1 (centres undefined)
EC50 [1]: > 53 µM (inactive) | IC50 [2]: > 47.1 µM (inactive)

COc1ccc(/C=N/NC(=O)c2cc[nH]n2)cc1CSc1ccccn1
AC50 [5]: 0.68 µM (active)

CC1(C)Cc2c(sc3[nH]c(=O)n(CC(=O)NCC4CCCO4)c(=O)c23)CO1 (centres undefined)
EC50 [1]: > 53 µM (inactive) | IC50 [2]: > 47.1 µM (inactive)

COC(=O)/C=c1/s/c(=C(\C#N)C(=O)NCc2ccco2)n(-c2ccccc2)c1=O
EC50 [1]: > 53 µM (inactive) | IC50 [2]: > 47.1 µM (inactive)

CCN(CC)c1ccc(/C=N\NC(=O)c2cccc3cc[nH]c23)cc1
EC50 [1]: > 53 µM (inactive) | IC50 [2]: > 47.1 µM (inactive)

Cc1ccc(Oc2cc(C)nc(-c3ccccc3O)n2)cc1
EC50 [8]: 12.9 µM (active) | EC50 [9]: 15 µM (active) | EC50 (H4): 44 µM (inconclusive)

CCNc1nc(NCC)nc(N/N=C/c2ccc(N(C)C)cc2)n1
AC50 [5]: 2.33 µM (active)

O=C1CCC(C(=O)Nc2ccccc2N2CCOCC2)=NN1
EC50 [1]: > 53 µM (inactive) | IC50 [2]: > 47.1 µM (inactive)

Nc1nn2cc(-c3ccc(Br)cc3)nc2c2ccccc12
EC50 [3]: 1.24 µM (active) | EC50 [4]: 109 µM (active) | EC50 [9]: 0.177 µM (active) | EC50 (H4): 2.38 µM (active)

O=C(Nc1ccc(-c2csc(Nc3ccc(Cl)cc3)n2)cc1)c1cc([N+](=O)[O-])cc(C(F)(F)F)c1
EC50 [10]: 8.5 µM (active) | EC50 (Streptococcus): 7.28 µM (active) | AC50 [11]: 1.32 µM (active) | EC50 (Streptokinase A): > 150 µM (not active)

COc1ccccc1N1CCN(CC(=O)Nc2c(C)n[nH]c2C)CC1
EC50 [1]: > 53 µM (inactive) | IC50 [2]: > 47.1 µM (inactive)

CCCCNC(=O)C1CCN(Cc2ccc(OCc3ccccc3)cc2)CC1
EC50 [8]: 18.6 µM (active) | EC50 [9]: 70.9 µM (active) | EC50 (H4): 63.1 µM (active)

CCc1noc(C)c1C(=O)Nc1cc(Cl)ccc1N1CCCC1
AC50 [5]: 1.15 µM (active)

CCOC(=O)c1ccc(Nc2ncccc2[N+](=O)[O-])cc1
EC50 [8]: 0.12 µM (active) | EC50 [9]: 1.82 µM (active) | EC50 (H4): 0.801 µM (active)

COC(=O)COc1ccc2c(-c3cccc([N+](=O)[O-])c3)cc(=O)oc2c1
IC50 (cells): 2.9 µM (active) | AC50 (Cytochrome P450 2C19): 0.251 µM (inconclusive)

CCOc1ccc(C(=O)Nc2nnc(C3=COCCO3)o2)cc1
IC50 (cells): 3.65 µM (active)

NC(=O)c1ccsc1NC(=O)CCS(=O)(=O)c1ccccc1
EC50 [3]: > 38 µM (not active) | EC50 [4]: > 150 µM (inactive)

CCOC(=O)C1(Cc2cccc(OC)c2)CCCN(C(=O)CCN2CCCO2)C1 (centres undefined)
EC50 [8]: 11.1 µM (active) | EC50 [9]: 9.65 µM (active) | EC50 (H4): 2 µM (active)

COc1ccc(C(=O)Nc2cccc(-c3ccc(N4CCOCC4)nn3)c2)cc1
EC50 [10]: > 150 µM (not active) | EC50 (Streptococcus): > 150 µM (not active) | EC50 (Streptokinase A): > 150 µM (not active)

O=C(NC1CCCCC1)C(c1ccc2ncccc2c1)N(Cc1ccc(F)cc1)C(=O)c1ccc2c(c1)OCCO2 (centres undefined)
EC50 [3]: > 38 µM (not active) | EC50 [4]: > 150 µM (inconclusive)

Cc1ccc(-n2c(-c3ccc(Cl)cc3)n[nH]c2=S)c(C)c1
AC50 [5]: 2.08 µM (active)
